Consider 21 compounds from patent publication US8163756B2 (priority 2004, dated 2012).

Structures can show the parent of a compound that is named as a salt. Where two headings read alike, the source gives them in different places.

Type in all cases: biochemical
In test [1] the target is T1, KDR kinase (Homo sapiens, UniProt P35968, DEL940-989/E990V). In words: KDR kinase assay K2 (as K1, 2.1 nM enzyme, 2 h pre-incubation, 1.0 mM ATP). The note with it: Method K2; read-out: KDR Data (IC50). As to the method: (§1) IC50 values were calculated from a series of percent inhibition values determined at a range of inhibitor concentrations using software routines as implemented in the GraphPad Prism software package.
T1 sequence (P35968 with tags, fused parts or gaps DEL940-989/E990V): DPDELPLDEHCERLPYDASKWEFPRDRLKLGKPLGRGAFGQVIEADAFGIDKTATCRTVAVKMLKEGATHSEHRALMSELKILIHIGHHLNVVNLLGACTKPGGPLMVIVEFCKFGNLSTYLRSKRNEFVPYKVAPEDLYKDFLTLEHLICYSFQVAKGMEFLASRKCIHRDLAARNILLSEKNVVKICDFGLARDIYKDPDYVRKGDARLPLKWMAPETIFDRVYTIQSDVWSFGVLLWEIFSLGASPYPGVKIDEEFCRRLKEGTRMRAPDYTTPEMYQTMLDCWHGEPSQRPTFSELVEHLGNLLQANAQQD

Test [2] concerns the target T2, Abl kinase (Homo sapiens, UniProt P00519).
T2 sequence (P00519 229-512): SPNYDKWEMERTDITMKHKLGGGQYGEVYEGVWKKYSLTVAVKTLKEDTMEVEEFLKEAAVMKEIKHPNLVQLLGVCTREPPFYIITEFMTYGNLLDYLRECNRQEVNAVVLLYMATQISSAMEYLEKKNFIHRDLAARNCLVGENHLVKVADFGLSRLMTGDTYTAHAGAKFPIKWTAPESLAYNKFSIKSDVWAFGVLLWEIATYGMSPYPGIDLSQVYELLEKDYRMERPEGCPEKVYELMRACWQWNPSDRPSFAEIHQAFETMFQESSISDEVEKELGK
Kind of test: Abl kinase assay A1 (pyruvate kinase/lactate dehydrogenase coupled, spectrophotometric). As to the method:
as §1

Test [3] concerns the target T1, KDR kinase. In words: KDR kinase assay K1 (pyruvate kinase/lactate dehydrogenase coupled, spectrophotometric). As to the method:
as §1

Test [4] has as its target B-Raf(V599E) kinase (Homo sapiens, UniProt P15056, V600E). In words: B-Raf(V599E) kinase assay B1 (construct 1, MEK1 substrate, coupled spectrophotometric). As to the method: The test compounds were incubated with the reaction mixtureat 30° C. for 2 h. […] The reaction rate was calculated using the […] time frame. […] IC50 values were calculated from a series of percent inhibition values determined at a range of inhibitor concentrations using software routines as implemented in the GraphPad Prism software package.

In test [5] the target is phosphorylated p-38-alpha kinase (Homo sapiens, UniProt Q16539). In words: P-38 alpha kinase assay P1 (coupled spectrophotometric, 2 h pre-incubation).
Sequence of phosphorylated p-38-alpha kinase (Q16539 1-360 isoform Q16539-2): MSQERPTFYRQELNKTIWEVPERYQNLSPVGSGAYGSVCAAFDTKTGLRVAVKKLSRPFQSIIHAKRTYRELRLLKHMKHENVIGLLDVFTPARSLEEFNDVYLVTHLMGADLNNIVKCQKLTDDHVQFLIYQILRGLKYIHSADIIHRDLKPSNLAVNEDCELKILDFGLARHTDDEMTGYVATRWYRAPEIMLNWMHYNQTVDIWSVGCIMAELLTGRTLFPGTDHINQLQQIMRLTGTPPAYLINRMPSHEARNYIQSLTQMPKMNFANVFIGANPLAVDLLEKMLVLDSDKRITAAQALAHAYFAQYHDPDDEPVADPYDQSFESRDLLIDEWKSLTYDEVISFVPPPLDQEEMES
Setting [6] is: Method A1, read-out: Abl Data (IC50).
Setting [7] is: Method K1, read-out: KDR Data (IC50).
Setting [8] is: method P1 (2 h pre-incubation), read-out: P-38 Data.

Sequence of B-Raf(V599E) kinase (P15056 with tags, fused parts or gaps V600E): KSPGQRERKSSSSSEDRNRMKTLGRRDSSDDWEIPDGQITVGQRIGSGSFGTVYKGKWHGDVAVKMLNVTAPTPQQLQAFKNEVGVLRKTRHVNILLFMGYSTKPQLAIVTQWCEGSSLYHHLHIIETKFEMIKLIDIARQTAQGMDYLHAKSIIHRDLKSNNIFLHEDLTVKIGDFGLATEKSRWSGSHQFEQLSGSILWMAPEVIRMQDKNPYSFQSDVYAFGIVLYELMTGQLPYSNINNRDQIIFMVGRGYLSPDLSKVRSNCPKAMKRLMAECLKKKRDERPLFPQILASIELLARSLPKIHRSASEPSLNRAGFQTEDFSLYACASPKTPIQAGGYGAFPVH

As to `CCOC(=O)C1CCN(C(=O)Cc2cccc(-n3nc(C(C)(C)C)cc3NC(=O)Nc3cccc(Cl)c3Cl)c2)CC1` [Example 344, ethyl 1-[2-(3-{3-t-butyl-5-[3-(2,3-dichlorophenyl)ureido]-1H-pyrazol-1-yl}phenyl)acetyl]piperidine-4-carboxylate], the IC50 in test [1] was determined as 2700 nM.
For `CC(C)(C)c1cc(NC(=O)Nc2cccc(Cl)c2Cl)n(-c2ccc3c(c2)CN[C@H](C(=O)O)C3)n1` [Example 177, (3S)-7-(3-t-butyl-5-(3-(2,3-dichlorophenyl)ureido)-1H-pyrazol-1-yl)-1,2,3,4-tetra-hydroisoquinoline-3-carboxylic acid], the IC50 came out at 1800 nM in test [2] (setting [6]), 230 nM in test [3] (setting [7]), 6.3 nM in test [4] and 43 nM in test [5] (setting [8]).
With `CC(C)(C)c1cc(NC(=O)Nc2cccc(Cl)c2Cl)n(-c2ccc3c(c2)CCC(=O)N3)n1` [Example 131, 1-[3-t-butyl-1-(2-oxo-1,2,3,4-tetrahydroquinolin-6-yl)-1H-pyrazol-5-yl]-3-(2,3-dichlorophenyl)urea], the IC50 in test [2] (setting [6]) amounted to 280 nM; in test [3] (setting [7]), 77 nM; in test [4] it was 1.9 nM; in test [5] (setting [8]), 33 nM.
For the compound `CC(C)(C)c1cc(NC(=O)Nc2cccc(Cl)c2Cl)n(-c2ccc3c(c2)CCNC3=O)n1` [Example 137, 1-(3-t-butyl-1-(1-oxo-1,2,3,4-tetrahydroisoquinolin-6-yl)-1H-pyrazol-5-yl)-3-(2,3-dichloro-phenyl)urea], the IC50 in test [2] (setting [6]) was 150 nM; in test [3] (setting [7]), 1000 nM; in test [4], 2.5 nM; in test [5] (setting [8]), 55 nM.
With `CC(C)(C)c1cc(NC(=O)Nc2cccc(Cl)c2Cl)n(-c2ccc3c(c2)C(N)=NCC3)n1` [Example 129, 1-[1-(1-amino-3,4-dihydroisoquinolin-7-yl)-3-t-butyl-1H-pyrazol-5-yl]-3-(2,3-dichlorophenyl)urea], the IC50 worked out at 270 nM in test [2] (setting [6]), 500 nM in test [3] (setting [7]), 4.2 nM in test [4] and 130 nM in test [5] (setting [8]).
For `CC(C)(C)c1cc(NC(=O)Nc2cccc(Cl)c2Cl)n(-c2ccc3c(c2)CCCN3C(=N)N)n1` [Example 136, 1-[3-t-butyl-1-(1-amidino-1,2,3,4-tetrahydroquinolin-6-yl]-1H-pyrazol-5-yl)-3-(2,3-dichlorophenyl)urea], in that order: 100 nM, 29 nM, 4.9 nM and 130 nM.
For `CC(C)(C)c1cc(NC(=O)Nc2cccc(Cl)c2Cl)n(-c2cccc(CO)c2)n1` [Example 1, 1-[3-t-butyl-1-(3-hydroxymethyl-phenyl)-1H-pyrazol-5-yl]-3-(2,3-dichlorophenyl)urea], the IC50 is 310 nM in test [2] (setting [6]), 130 nM in test [3] (setting [7]), 4.6 nM in test [4] and 11 nM in test [5] (setting [8]).
For `CC(C)(C)c1cc(NC(=O)Nc2cccc(Cl)c2Cl)n(-c2cccc(CCC(=O)O)c2)n1` [Example 46, 3-(3-{3-t-Butyl-5-[3-(2,3-dichloro-phenyl)ureido]-1H-pyrazol-1-yl}-phenyl)propionic acid], in that order: 2500 nM, 170 nM, 3.3 nM and 6 nM.
The corresponding values for `CC(C)(C)c1cc(NC(=O)Nc2cccc(Cl)c2Cl)n(-c2cc(CO)c3ccccc3c2)n1` [Example 60, 1-[5-t-butyl-2-(4-hydroxymethylnaphthalen-2-yl)-2H-pyrazol-3-yl]-3-(2,3-dichloro-phenyl)urea] are 63 nM, 62 nM, 2.6 nM and 18 nM.
For the compound `CC(C)(C)c1cc(NC(=O)Nc2cccc(Cl)c2Cl)n(-c2ccc3c(c2)CCCN3)n1` [Example 135, 1-[3-t-butyl-1-(1,2,3,4-tetrahydroquinolin-6-yl)-1H-pyrazol-5-yl]-3-(2,3-dichlorophenyl)urea hydrochloride], the IC50 in test [2] came to 840 nM; in test [3] it was 270 nM; in test [4], 4.5 nM; in test [5], 44 nM.
`CC(C)(C)c1cc(NC(=O)Nc2cccc(Cl)c2Cl)n(-c2ccc3c(c2)CCNCC3)n1` [Example 166, 1-(3-t-butyl-1-(2,3,4,5-tetrahydro-1H-benzo[d]azepin-7-yl)-1 H-pyrazol-5-yl)-3-(2,3-dichlorophenyl)urea]: the IC50 turned out to be 230 nM in test [2] (setting [6]), 210 nM in test [3] (setting [7]), 5.7 nM in test [4] and 61 nM in test [5] (setting [8]).
In the case of `CC(C)(C)c1cc(NC(=O)Nc2cccc(Cl)c2Cl)n(-c2ccc(CCO)cc2)n1` [Example 45, 1-{3-t-butyl-1-[4-(2-hydroxyethyl)-phenyl]-1H-pyrazol-5-yl}-3-(2,3-dichlorophenyl)urea], the IC50 in test [2] (setting [6]) stood at 780 nM; in test [3] (setting [7]), 360 nM; in test [4], 6.2 nM; in test [5] (setting [8]) it was 5 nM.
The corresponding values for `CC(=O)N1CCc2ccc(-n3nc(C(C)(C)C)cc3NC(=O)Nc3cccc(Cl)c3Cl)cc2C1` [Example 126, 1-[1-(2-acetyl-1,2,3,4-tetrahydroisoquinolin-7-yl)-3-t-butyl-1H-pyrazol-5-yl]-3-(2,3-dichlorophenyl)urea] are 440 nM, 210 nM, 6.5 nM and 10 nM.
Take `CC(C)(C)c1cc(NC(=O)Nc2cccc(Cl)c2Cl)n(-c2cccc(C(=N)N)c2)n1` [Example 44, 1-[3-t-butyl-1-(3-carbamimidoylphenyl)-1H-pyrazol-5-yl]-3-(2,3-dichlorophenyl)urea]: the IC50 in test [2] (setting [6]) is 440 nM; in test [3] (setting [7]) it was 2400 nM; in test [4] it was 4 nM; in test [5] (setting [8]), 70 nM.
For `CC(C)(C)c1cc(NC(=O)Nc2cccc(Cl)c2Cl)n(-c2ccc3c(c2)C(=O)NCC3)n1` [Example 122, 1-[3-t-butyl-1-(1-oxo-1,2,3,4-tetrahydroisoquinolin-7-yl)-1H-pyrazol-5-yl]-3-(2,3-di-chlorophenyl)urea], in that order: 2800 nM, 1400 nM, 11 nM and 130 nM.
For `CC(C)(C)c1cc(NC(=O)Nc2cccc(Cl)c2Cl)n(-c2ccc3c(c2)CN(S(C)(=O)=O)CC3)n1` [Example 127, 1-{3-t-butyl-1-[2-(methanesulfonyl)-1,2,3,4-tetrahydroisoquinolin-7-yl]-1H-pyrazol-5-yl}-3-(2,3-dichlorophenyl)urea], in that order: 220 nM, 220 nM, 3.4 nM and 13 nM.
For `CC(C)(C)c1cc(NC(=O)Nc2cccc(Cl)c2Cl)n(-c2cc(CNC(=O)NS(C)(=O)=O)c3ccccc3c2)n1` [Example 75, 1-{3-t-butyl-1-[1-(methanesulfonylureidoamidomethyl)naphthalen-3-yl]-1H-pyrazol-5-yl}-3-(2,3-dichlorophenyl-1-yl)urea], in that order: 63 nM, 140 nM, 4.2 nM and 6 nM.
As for `CC(C)(C)c1cc(NC(=O)Nc2cccc(Cl)c2Cl)n(-c2ccc3c(c2)CCN(S(C)(=O)=O)C3)n1` [Example 154, 1-(3-t-butyl-1-(2-(methylsulfonyl)-1,2,3,4-tetrahydroisoquinolin-6-yl)-1H-pyrazol-5-yl)-3-(2,3-dichlorophenyl)urea], the IC50 came out at 270 nM in test [2] (setting [6]), 92 nM in test [3] (setting [7]), 2.9 nM in test [4] and 12 nM in test [5] (setting [8]).
For `CC(C)(C)c1cc(NC(=O)Nc2cccc(Cl)c2Cl)n(-c2cc(CN)c3ccccc3c2)n1` [Example 69, 1-[1-(4-(aminomethyl)naphthalen-2-yl)-3-t-butyl-1H-pyrazol-5-yl]-3-(2,3-dichlorophenyl)urea], in that order: 140 nM, 400 nM, 4.2 nM and 110 nM.
The corresponding values for `CC(C)(C)c1cc(NC(=O)Nc2cccc(Cl)c2Cl)n(-c2ccc3c(c2)CCNC(=O)C3)n1` [Example 165, 1-(3-t-butyl-1-(2-oxo-2,3,4,5-tetrahydro-1H-benzo[d]azepin-7-yl)-1H-pyrazol-5-yl)-3-(2,3-dichlorophenyl)urea] are 200 nM, 210 nM, 2.4 nM and 7 nM.
The corresponding values for `CC(C)(C)c1cc(NC(=O)Nc2cccc(Cl)c2Cl)n(-c2ccc3c(c2)CN[C@H](C(N)=O)C3)n1` [Example 178, 1-(3-t-butyl-1-((3S)-3-carbamoyl-1,2,3,4-tetrahydroisoquinolin-7-yl)-1 H-pyrazol-5-yl)-3-(2,3-dichlorophenyl)urea] are 230 nM, 180 nM, 2 nM and 46 nM.
